Measured values from patent publication US20080051466A1, “Isoalpha acid based protein kinase modulation cancer treatment” (Metaproteomics, LLC, priority 2006, published 2008).

Tests used:
Assay in all cases: KinaseProfiler Assay
Assay type in all cases: biochemical
MAPKAP-K3 = MAPKAP-K3 (Homo sapiens, UniProt Q16644); details: read-out: MAPKAP-K3, % of Control
EphA2 = EphA2 (Homo sapiens, UniProt P29317); details: read-out: EphA2, % of Control
SGK2 = biological target: T1, SGK2 (Homo sapiens, UniProt Q9HBY8); details: read-out: SGK2, % of Control
T1 sequence (Q9HBY8 1-367): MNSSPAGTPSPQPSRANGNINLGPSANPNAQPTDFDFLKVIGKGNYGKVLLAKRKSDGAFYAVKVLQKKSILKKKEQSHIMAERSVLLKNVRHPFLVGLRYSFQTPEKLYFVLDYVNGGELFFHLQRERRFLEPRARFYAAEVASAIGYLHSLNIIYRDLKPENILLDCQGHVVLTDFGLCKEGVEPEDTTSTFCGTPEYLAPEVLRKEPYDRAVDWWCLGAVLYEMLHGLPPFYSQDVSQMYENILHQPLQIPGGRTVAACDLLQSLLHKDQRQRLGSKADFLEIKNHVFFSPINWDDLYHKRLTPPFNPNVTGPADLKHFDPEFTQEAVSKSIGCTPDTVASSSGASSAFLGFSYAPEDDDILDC

Flt4 = Flt4 (Homo sapiens, UniProt P35916); details: read-out: Flt4, % of Control
ZIPK = ZIPK (Homo sapiens, UniProt O43293); details: read-out: ZIPK, % of Control
DAPK2 = DAPK2 (Homo sapiens, UniProt Q9UIK4); details: read-out: DAPK2, % of Control
MAPKAP-K2 = MAPKAP-K2 (Homo sapiens, UniProt P49137); details: read-out: MAPKAP-K2, % of Control
Syk = Syk (Homo sapiens, UniProt P43405); details: read-out: Syk, % of Control
JAK3 = biological target: T2, JAK3 (Homo sapiens, UniProt P52333); details: read-out: JAK3, % of Control
T2 sequence (P52333 1-1124): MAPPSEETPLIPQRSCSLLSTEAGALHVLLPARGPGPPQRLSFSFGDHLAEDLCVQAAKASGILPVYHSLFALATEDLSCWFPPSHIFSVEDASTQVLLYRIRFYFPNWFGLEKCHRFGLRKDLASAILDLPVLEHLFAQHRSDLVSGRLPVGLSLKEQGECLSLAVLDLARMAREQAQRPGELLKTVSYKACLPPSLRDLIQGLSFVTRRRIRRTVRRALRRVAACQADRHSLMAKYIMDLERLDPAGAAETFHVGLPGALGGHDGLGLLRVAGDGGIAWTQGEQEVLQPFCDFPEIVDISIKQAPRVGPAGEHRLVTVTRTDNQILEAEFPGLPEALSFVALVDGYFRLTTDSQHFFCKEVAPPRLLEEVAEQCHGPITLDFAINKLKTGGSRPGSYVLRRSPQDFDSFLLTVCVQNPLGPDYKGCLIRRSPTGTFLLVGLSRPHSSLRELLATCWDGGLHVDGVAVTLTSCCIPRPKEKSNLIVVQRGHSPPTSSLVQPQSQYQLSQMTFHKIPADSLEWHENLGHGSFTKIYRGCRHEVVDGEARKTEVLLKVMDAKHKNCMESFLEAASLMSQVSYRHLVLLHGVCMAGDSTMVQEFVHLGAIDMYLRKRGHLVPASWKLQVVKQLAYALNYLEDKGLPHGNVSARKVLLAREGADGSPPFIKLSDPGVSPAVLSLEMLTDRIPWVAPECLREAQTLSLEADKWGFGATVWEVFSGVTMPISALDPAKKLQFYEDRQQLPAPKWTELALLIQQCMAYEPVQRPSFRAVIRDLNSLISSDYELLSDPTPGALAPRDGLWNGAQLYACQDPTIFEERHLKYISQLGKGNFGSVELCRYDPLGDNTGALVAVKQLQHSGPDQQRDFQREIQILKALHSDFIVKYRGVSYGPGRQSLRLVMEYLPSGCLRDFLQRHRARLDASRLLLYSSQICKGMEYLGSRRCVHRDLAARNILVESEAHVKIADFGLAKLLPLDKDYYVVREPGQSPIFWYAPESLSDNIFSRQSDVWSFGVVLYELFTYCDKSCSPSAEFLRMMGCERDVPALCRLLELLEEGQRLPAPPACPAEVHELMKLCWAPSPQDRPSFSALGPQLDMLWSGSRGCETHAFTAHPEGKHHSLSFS

IR = IR (Homo sapiens, UniProt P06213); details: read-out: IR, % of Control
ALK4 = ALK4 (Homo sapiens, UniProt P36896); details: read-out: ALK4, % of Control
PKA = PKA (Homo sapiens, UniProt P17612); details: read-out: PKA, % of Control

Chain of ZIPK (O43293 whole entry): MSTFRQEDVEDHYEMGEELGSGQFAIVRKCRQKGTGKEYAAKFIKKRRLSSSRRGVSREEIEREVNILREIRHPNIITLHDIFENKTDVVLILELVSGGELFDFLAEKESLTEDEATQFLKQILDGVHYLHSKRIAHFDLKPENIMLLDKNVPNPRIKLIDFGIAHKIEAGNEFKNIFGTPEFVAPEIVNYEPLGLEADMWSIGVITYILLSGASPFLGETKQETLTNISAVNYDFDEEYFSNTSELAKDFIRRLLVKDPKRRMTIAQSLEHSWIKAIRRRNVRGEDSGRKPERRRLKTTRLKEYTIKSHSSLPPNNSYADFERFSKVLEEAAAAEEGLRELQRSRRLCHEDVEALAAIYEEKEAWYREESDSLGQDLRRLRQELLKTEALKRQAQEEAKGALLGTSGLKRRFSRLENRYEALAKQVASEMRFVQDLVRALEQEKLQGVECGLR
Chain of DAPK2 (Q9UIK4 whole entry): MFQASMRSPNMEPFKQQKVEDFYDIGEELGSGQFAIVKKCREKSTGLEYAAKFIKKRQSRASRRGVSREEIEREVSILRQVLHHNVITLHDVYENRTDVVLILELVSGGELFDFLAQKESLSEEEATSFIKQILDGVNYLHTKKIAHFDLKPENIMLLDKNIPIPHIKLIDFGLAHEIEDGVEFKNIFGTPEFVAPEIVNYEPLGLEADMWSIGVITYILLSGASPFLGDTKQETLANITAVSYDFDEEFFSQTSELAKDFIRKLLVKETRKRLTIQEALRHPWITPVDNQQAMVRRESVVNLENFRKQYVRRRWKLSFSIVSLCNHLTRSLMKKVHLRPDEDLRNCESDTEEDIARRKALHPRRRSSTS
Chain of Flt4 (P35916 25-1363): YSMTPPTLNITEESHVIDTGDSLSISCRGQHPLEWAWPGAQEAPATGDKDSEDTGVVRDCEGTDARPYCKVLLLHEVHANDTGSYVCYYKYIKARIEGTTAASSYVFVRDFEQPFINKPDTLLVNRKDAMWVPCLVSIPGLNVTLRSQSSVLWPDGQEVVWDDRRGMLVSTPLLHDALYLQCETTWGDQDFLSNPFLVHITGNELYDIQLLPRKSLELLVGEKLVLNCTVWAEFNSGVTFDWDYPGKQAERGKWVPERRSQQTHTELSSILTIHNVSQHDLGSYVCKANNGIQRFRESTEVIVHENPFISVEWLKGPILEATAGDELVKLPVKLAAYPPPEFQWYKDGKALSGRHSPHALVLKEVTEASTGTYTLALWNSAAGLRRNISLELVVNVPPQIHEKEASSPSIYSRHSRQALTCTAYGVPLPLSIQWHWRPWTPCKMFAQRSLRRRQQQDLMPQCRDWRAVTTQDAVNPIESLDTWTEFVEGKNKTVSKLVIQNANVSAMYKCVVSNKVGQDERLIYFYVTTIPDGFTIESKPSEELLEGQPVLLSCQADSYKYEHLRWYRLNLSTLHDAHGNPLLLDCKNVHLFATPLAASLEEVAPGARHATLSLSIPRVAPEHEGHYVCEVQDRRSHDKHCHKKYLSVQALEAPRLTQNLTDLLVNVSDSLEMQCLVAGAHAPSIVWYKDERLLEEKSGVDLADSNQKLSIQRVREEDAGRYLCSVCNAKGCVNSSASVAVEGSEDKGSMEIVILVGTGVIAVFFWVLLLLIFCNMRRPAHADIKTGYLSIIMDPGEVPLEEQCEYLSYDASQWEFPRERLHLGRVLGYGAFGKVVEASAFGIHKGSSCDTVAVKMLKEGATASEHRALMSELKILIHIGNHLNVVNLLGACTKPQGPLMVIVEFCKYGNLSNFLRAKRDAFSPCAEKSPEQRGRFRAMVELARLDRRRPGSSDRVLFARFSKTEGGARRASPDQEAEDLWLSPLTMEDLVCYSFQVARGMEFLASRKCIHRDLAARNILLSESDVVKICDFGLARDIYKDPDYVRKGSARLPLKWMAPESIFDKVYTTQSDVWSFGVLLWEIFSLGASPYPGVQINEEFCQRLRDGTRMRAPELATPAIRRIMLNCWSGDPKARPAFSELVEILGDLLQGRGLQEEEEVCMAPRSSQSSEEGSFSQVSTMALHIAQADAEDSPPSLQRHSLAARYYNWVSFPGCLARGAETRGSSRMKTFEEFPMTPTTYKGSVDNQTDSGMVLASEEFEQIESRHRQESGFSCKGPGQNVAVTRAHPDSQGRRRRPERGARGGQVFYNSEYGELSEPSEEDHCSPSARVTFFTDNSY
Chain of MAPKAP-K2 (P49137 whole entry): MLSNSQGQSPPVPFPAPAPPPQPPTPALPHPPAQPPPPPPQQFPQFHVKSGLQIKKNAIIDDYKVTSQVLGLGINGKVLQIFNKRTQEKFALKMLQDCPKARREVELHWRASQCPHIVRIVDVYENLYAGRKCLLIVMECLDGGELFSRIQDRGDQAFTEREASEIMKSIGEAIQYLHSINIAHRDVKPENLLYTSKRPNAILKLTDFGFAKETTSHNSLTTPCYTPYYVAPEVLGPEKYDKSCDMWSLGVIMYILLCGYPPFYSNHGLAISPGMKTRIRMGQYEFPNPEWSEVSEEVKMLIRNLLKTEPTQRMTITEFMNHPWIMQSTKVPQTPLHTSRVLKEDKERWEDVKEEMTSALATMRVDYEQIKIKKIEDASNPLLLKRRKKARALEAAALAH
Chain of EphA2 (P29317 24-976): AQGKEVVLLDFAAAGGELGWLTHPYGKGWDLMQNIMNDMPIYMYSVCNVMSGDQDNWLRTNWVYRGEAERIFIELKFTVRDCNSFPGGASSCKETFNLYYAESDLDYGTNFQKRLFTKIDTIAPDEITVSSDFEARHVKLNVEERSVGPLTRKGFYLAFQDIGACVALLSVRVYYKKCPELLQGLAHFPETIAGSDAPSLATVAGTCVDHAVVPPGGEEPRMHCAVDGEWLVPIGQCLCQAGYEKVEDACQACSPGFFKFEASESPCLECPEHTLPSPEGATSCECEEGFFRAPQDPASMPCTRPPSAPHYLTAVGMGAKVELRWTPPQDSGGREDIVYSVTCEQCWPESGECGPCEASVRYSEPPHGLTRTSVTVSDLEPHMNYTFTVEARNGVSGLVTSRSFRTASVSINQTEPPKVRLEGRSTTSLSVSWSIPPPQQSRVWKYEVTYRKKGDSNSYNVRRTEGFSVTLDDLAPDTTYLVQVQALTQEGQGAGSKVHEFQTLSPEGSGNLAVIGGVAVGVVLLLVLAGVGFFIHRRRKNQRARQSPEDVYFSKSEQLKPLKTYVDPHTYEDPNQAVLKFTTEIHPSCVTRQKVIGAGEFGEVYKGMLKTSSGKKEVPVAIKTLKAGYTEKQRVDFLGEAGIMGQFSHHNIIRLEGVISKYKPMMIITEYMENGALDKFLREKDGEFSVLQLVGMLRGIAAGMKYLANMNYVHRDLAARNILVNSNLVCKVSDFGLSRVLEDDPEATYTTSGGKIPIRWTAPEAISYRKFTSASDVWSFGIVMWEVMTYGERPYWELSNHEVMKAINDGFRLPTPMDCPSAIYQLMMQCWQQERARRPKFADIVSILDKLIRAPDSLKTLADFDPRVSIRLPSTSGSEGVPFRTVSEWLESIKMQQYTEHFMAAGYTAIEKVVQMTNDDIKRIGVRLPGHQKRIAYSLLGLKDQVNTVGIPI
Chain of IR (P06213 28-1382): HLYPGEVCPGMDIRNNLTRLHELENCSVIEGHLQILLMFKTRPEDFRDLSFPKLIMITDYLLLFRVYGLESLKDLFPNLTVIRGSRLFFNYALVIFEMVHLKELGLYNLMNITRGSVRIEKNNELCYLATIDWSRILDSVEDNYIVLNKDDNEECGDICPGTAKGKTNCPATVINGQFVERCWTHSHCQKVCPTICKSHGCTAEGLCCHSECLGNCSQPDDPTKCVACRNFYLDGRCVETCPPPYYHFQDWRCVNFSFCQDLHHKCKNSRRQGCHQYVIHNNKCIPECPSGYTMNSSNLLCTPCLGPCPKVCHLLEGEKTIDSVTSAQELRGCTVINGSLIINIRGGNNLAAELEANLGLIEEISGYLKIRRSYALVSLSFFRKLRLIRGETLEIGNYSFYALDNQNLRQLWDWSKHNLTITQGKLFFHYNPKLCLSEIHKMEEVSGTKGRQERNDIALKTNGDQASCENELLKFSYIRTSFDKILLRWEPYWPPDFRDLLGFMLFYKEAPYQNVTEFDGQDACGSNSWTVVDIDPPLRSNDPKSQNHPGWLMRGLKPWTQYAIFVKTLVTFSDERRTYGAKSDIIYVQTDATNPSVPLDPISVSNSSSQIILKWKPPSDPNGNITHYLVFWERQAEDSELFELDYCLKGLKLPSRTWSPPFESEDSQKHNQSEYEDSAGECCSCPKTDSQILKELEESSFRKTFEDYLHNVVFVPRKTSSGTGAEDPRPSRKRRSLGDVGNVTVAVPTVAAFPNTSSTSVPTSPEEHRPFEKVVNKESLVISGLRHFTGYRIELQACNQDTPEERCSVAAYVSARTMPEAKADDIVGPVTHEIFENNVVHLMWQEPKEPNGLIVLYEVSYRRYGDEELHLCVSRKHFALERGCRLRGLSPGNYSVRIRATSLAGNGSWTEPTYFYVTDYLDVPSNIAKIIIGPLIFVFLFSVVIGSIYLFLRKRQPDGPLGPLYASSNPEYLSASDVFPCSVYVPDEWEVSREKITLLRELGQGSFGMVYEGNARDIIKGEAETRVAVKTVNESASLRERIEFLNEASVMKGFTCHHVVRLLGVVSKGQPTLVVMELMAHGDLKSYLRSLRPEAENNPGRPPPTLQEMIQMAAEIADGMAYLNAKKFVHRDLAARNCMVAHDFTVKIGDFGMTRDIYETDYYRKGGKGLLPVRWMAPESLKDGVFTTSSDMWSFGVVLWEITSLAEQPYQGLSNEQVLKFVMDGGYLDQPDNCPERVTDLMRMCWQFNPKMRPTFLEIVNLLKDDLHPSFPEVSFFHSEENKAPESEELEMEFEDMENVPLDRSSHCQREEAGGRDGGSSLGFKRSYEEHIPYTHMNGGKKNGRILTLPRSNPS

For COc1cc(O)c(CC=C(C)C)c(O)c1C(=O)/C=C/c1ccc(O)cc1 [Xanthohumol, xanthohumol], which remaining activity at 25 µg/mL (MAPKAP-K3; 25 ug/ml) is on record?
Its remaining activity at 25 µg/mL is 17%.

And the remaining activity at 50 µg/mL (MAPKAP-K3; 50 ug/ml)?
The remaining activity at 50 µg/mL was 7%.

And the remaining activity at 1 µg/mL (EphA2; 1 ug/ml)?
Its remaining activity at 1 µg/mL is 124%.

What about the remaining activity at 50 µg/mL (EphA2; 50 ug/ml) of the same compound?
Its remaining activity at 50 µg/mL is 52%.

What about the remaining activity at 1 µg/mL (SGK2; 1 ug/ml) of the same compound?
Its remaining activity at 1 µg/mL is 130%.

What about the remaining activity at 5 µg/mL (SGK2; 5 ug/ml) of the same compound?
The remaining activity at 5 µg/mL was 110%.

What about the remaining activity at 50 µg/mL (SGK2; 50 ug/ml) of the same compound?
The remaining activity at 50 µg/mL was -4%.

And the remaining activity at 1 µg/mL (Flt4; 1 ug/ml)?
Its remaining activity at 1 µg/mL is 74%.

And the remaining activity at 5 µg/mL (Flt4; 5 ug/ml)?
Its remaining activity at 5 µg/mL is 10%.

And the remaining activity at 25 µg/mL (Flt4; 25 ug/ml)?
The remaining activity at 25 µg/mL was 11%.

And the remaining activity at 1 µg/mL (ZIPK; 1 ug/ml)?
The remaining activity at 1 µg/mL was 115%.

What about the remaining activity at 5 µg/mL (ZIPK; 5 ug/ml) of the same compound?
Its remaining activity at 5 µg/mL is 74%.

And the remaining activity at 25 µg/mL (ZIPK; 25 ug/ml)?
Its remaining activity at 25 µg/mL is 20%.

And the remaining activity at 50 µg/mL (ZIPK; 50 ug/ml)?
Its remaining activity at 50 µg/mL is 70%.

What about the remaining activity at 1 µg/mL (DAPK2; 1 ug/ml) of the same compound?
The remaining activity at 1 µg/mL was 105%.

And the remaining activity at 5 µg/mL (DAPK2; 5 ug/ml)?
Its remaining activity at 5 µg/mL is 88%.

What about the remaining activity at 25 µg/mL (DAPK2; 25 ug/ml) of the same compound?
The remaining activity at 25 µg/mL was 45%.

What about the remaining activity at 50 µg/mL (DAPK2; 50 ug/ml) of the same compound?
The remaining activity at 50 µg/mL was 26%.

And the remaining activity at 1 µg/mL (MAPKAP-K2; 1 ug/ml)?
The remaining activity at 1 µg/mL was 99%.

What about the remaining activity at 5 µg/mL (MAPKAP-K2; 5 ug/ml) of the same compound?
The remaining activity at 5 µg/mL was 95%.

And the remaining activity at 25 µg/mL (MAPKAP-K2; 25 ug/ml)?
The remaining activity at 25 µg/mL was 6%.

What about the remaining activity at 50 µg/mL (MAPKAP-K2; 50 ug/ml) of the same compound?
Its remaining activity at 50 µg/mL is 8%.

What about the remaining activity at 1 µg/mL (Syk; 1 ug/ml) of the same compound?
The remaining activity at 1 µg/mL was 95%.

What about the remaining activity at 5 µg/mL (Syk; 5 ug/ml) of the same compound?
The remaining activity at 5 µg/mL was 60%.

And the remaining activity at 25 µg/mL (Syk; 25 ug/ml)?
The remaining activity at 25 µg/mL was 32%.

What about the remaining activity at 50 µg/mL (Syk; 50 ug/ml) of the same compound?
The remaining activity at 50 µg/mL was 17%.

What about the remaining activity at 1 µg/mL (JAK3; 1 ug/ml) of the same compound?
Its remaining activity at 1 µg/mL is 104%.

And the remaining activity at 5 µg/mL (JAK3; 5 ug/ml)?
The remaining activity at 5 µg/mL was 84%.

And the remaining activity at 25 µg/mL (JAK3; 25 ug/ml)?
Its remaining activity at 25 µg/mL is 17%.

And the remaining activity at 50 µg/mL (JAK3; 50 ug/ml)?
The remaining activity at 50 µg/mL was 5%.

And the remaining activity at 1 µg/mL (IR; 1 ug/ml)?
The remaining activity at 1 µg/mL was 120%.

And the remaining activity at 5 µg/mL (IR; 5 ug/ml)?
Its remaining activity at 5 µg/mL is 108%.

And the remaining activity at 1 µg/mL (ALK4; 1 ug/ml)?
The remaining activity at 1 µg/mL was 116%.

What about the remaining activity at 25 µg/mL (ALK4; 25 ug/ml) of the same compound?
Its remaining activity at 25 µg/mL is 71%.

And the remaining activity at 1 µg/mL (PKA; 1 ug/ml)?
The remaining activity at 1 µg/mL was 105%.

And the remaining activity at 5 µg/mL (PKA; 5 ug/ml)?
The remaining activity at 5 µg/mL was 109%.

And the remaining activity at 25 µg/mL (PKA; 25 ug/ml)?
Its remaining activity at 25 µg/mL is 98%.

What about the remaining activity at 50 µg/mL (PKA; 50 ug/ml) of the same compound?
Its remaining activity at 50 µg/mL is 21%.
